Where two headings read alike, the source gives them in different places.
Assays:
SW480 = test: MTS cytotoxicity assay, SW480 colorectal cancer cells; type: cell-based, human; settings: for IC50: MTS, 24 h incubation, n = 3, >100 = no detectable effect at highest concentration, * = IC50 could not be determined (high variability or no consistent dose-response), read-out: Cytotoxicity IC50 ± SD, SW480
Procedure: (§1) The human colorectal cancer cell lines SW620, SW480 were obtained from the American Type Culture Collection (ATCC). Both cell lines were cultured in Dulbecco’s Modified Eagle Medium (DMEM) (Capricorn Scientific GmbH, Manassas, USA), which was supplemented with 10% fetal bovine serum (FBS) and 50 µg/mL of gentamicin. Cells were incubated at 37 °C in a humidified atmosphere containing 5% CO₂. The cultures were passaged approximately every three days upon reaching confluence using a 0.25% trypsin-EDTA solution, at a ratio of approximately 1:3 to 1:4. For the MTS assay, cells were seeded at a density of 10,000 cells per well in 96-well plates. After 24 h, compounds were added at five concentrations ([…]), and cells were incubated for an additional 24 h. Cytotoxicity was assessed using the CellTiter 96® AQueous One Solution Cell Proliferation Assay (Promega), following the manufacturer’s instructions. Absorbance was measured at 490 nm using a microplate reader.
(§2) The IC₅₀ values were determined relative to the untreated control cells (without test compounds). All experiments were performed in triplicate (n = 3). Compounds for which IC₅₀ values could not be reliably determined were excluded from quantitative analysis. […] Such compounds are reported as ‘>100µM’ or ‘>100µM*’, respectively, in the results.

SW620 = test: MTS cytotoxicity assay, SW620 colorectal cancer cells; type: cell-based, human; settings: for IC50: Homo sapiens, SW-620, MTS, 24 h incubation, n = 3, >100 = no detectable effect at highest concentration, * = IC50 could not be determined (high variability or no consistent dose-response), read-out: Cytotoxicity IC50 ± SD, SW620
Procedure: as §1, §2

[1] = Phospholipid affinity by IAM-HPLC (IAM.PC.DD2 column); type: physicochemical; settings: pH 7.4, phospholipidosis threshold >50
Source text: (§3) All chromatographic experiments adhered to the protocols established by Valko and colleagues, which were implemented in our laboratory. Essentially, biochromatography facilitated the assessment of lipophilicity and phospholipid affinity, represented as Chromatographic Hydrophobicity Index (CHI) values, through a gradient elution experiment, comparing results with model substances. The Prominence-1 LC-2030C 3D HPLC system, operated via LabSolution software (v6.81, Kyoto, Japan), was utilized for all chromatographic analyses. Throughout the research, distinct chromatographic columns were employed: IAM.PC.DD2 (10 × 4.6 mm × 10.0 µm with a guard column; Regis Technologies; USA) and C18 Hypersil GOLD^TM (100 mm × 4.6 mm; 5.0 µm with a guard column; Thermo Scientific, Waltham, MA, USA). Each column was paired with guard columns featuring the same stationary phases as the main column. Mobile phase A consisted of a water solution of 50 mM ammonium acetate (VWR International, Leuven, Belgium), adjusted to physiological pH 7.4 using concentrated ammonia solution (Avantor Performance Materials Poland S.A., Gliwice, Poland). The mobile phase was prepared with ultrapure water from a Milli-Q water purification system (Merck Millipore, Darmstadt, Germany), achieving a resistivity of 18.2 MΩ. For phospholipid binding assessments, mobile phase B was HPLC grade acetonitrile (Chempur, Piekary Śląskie, Poland), with a linear gradient from 0 to 85% B over 5.25 min, then maintained at 85% ACN for 0.5 min. The mobile phase was delivered at a flow rate of 1.5 mL/min, with the IAM.PC.DD2 column temperature held steady at 30 °C. For lipophilicity evaluations, the solvents and flow rate mirrored those used in IAM chromatography. The C18 Hypersil GOLD^TM column was kept at 40 °C. Similarly, a linear gradient was applied from 0 to 5.25 min, but, in this instance, it ranged from 2 to 98% ACN, with the maximum phase B concentration sustained for 2.5 min. Dimethyl sulfoxide (Avantor Performance Materials Poland S.A., Poland) was employed to dissolve the target solutes, forming a solution with a concentration of 200 µg/mL. Detection occurred in the UV region at a wavelength of 190–300 nm. The injection volume was 5 μL, and each compound was analyzed in duplicate, with retention time variation below 0.5%. Retention times for the studied molecules and reference standards are detailed in the Supplementary Material, Tables S1 and S2.

[2] = Lipophilicity by gradient RP-HPLC (C18, pH 7.4): CHI, chrom logD, PFI; type: physicochemical; parameters: key to PFI (Property Forecast Index): PFI = Chrom logD7.4 + number of aromatic rings; settings: for chromatographic logD: C18 Hypersil GOLD reversed-phase HPLC column, pH 7.4, C18 column; for chromatographic logD / chrom logD (RP-HPLC): pH 7.4, Chrom logD = 0.0525 × CHI − 1.467; for chrom logD (RP-HPLC): C18 column; for CHI C18: C18 at pH 7.4; for PFI (Property Forecast Index): PFI = Chrom logD7.4 + #Ar, threshold 7
Source text: as §3
Experimentally determined CHI values were converted to chrom logD using the following equation [53]:Chrom logD = 0.0525 × CHI − 1.467(1)
In addition, the Property Forecast Index (PFI), the sum of the number of aromatic rings(#Ar), and a lipophilicity measure are used to reflect the principle of simultaneous minimization of lipophilicity and aromaticity, which supports the selection of oral clinical candidates in GKS [47].PFI = Chrom logD7.4 + #Ar(2)

Compound	IC50 (SW480; Homo sapiens)	IC50 (SW620)	Cytotoxic activity in words, SW480 (SW480)	Cytotoxic activity in words, SW620 (SW620)	CHI IAM (IAM-HPLC) [1]	chromatographic logD [2]	chrom logD (RP-HPLC) [2]	CHI C18 [2]	PFI (Property Forecast Index) [2]	IC50 (SW480)
O=c1[nH]cc(F)c(=O)[nH]1 [5-fluorouracil, reference compound]	15.5 ± 7.83 µM	21.7 ± 2.75 µM								
Cl.Clc1ccccc1Nc1nc(NCCc2ccccc2)nc(N2CCOCC2)n1 [Compound 3, N^2-(2-chlorophenyl)-6-morpholino-N^4-phenethyl-1,3,5-triazine-2,4-diamine hydrochloride]	> 100 µM	> 100 µM	limited cytotoxic potential	limited cytotoxic potential	55.97	3.95	3.947			
Cl.Clc1ccccc1Nc1nc(Nc2ccccc2)nc(N2CCOCC2)n1 [Compound 4, N^2-(2-chlorophenyl)-6-morpholino-N^4-phenyl-1,3,5-triazine-2,4-diamine hydrochloride]	> 100 µM	36.1 ± 46.5 µM			46.34	4.1	4.098	106	7.10	
Cl.Clc1ccccc1Nc1nc(NCc2ccccc2)nc(N2CCOCC2)n1 [Compound 5, N^2-benzyl-N^4-(2-chlorophenyl)-6-morpholino-1,3,5-triazine-2,4-diamine hydrochloride]	43.1 µM	32.8 ± 23.4 µM			46.45	3.95	3.947	103.1	6.95	43.4 ± 12.2 µM
Cl.Clc1ccccc1Nc1nc(NCCCc2ccccc2)nc(N2CCOCC2)n1 [Compound 6, N^2-(2-chlorophenyl)-6-morpholino-N^4-(3-phenylpropyl)-1,3,5-triazine-2,4-diamine hydrochloride]	> 100 µM	> 100 µM	limited cytotoxic potential	limited cytotoxic potential	51.63	4.71	4.706	117.6	7.71	
Cl.Fc1ccc(N2CCN(CCNc3nc(Nc4ccccc4Cl)nc(N4CCOCC4)n3)CC2)cc1 [Compound 7, N^2-(2-chlorophenyl)-N^4-(2-(4-(4-fluorophenyl)piperazin-1-yl)ethyl)-6-morpholino-1,3,5-triazine-2,4-diamine hydrochloride]	> 100 µM		limited cytotoxic potential	limited cytotoxic potential	49.59	4.44	4.443	112.6	7.44	
Cl.Clc1ccccc1Nc1nc(N2CCOCC2)nc(N2CCN(c3ccccc3)CC2)n1 [Compound 8, N-(2-chlorophenyl)-4-morpholino-6-(4-phenylpiperazin-1-yl)-1,3,5-triazin-2-amine hydrochloride]	20.6 ± 24.9 µM				47.79	4.15	4.148	107	7.15	
Cl.Clc1ccccc1Nc1nc(N2CCOCC2)nc(N2CCN(c3nsc4ccccc34)CC2)n1 [Compound 9, 4-(4-(benzo[d]isothiazol-3-yl)piperazin-1-yl)-N-(2-chlorophenyl)-6-morpholino-1,3,5-triazin-2-amine hydrochloride]	> 100 µM	22.1 ± 17.3 µM	inactive	some activity	48.02	4.23	4.226	108.4	7.23	
Cl.Clc1ccccc1Nc1nc(NCCNc2ccccc2)nc(N2CCOCC2)n1 [Compound 10, N^2-(2-chlorophenyl)-6-morpholino-N^4-(2-(phenylamino)ethyl)-1,3,5-triazine-2,4-diamine hydrochloride]	> 100 µM		limited cytotoxic potential	limited cytotoxic potential	44.55	3.94	3.936	102.9	6.94	
Cl.Clc1ccccc1Nc1nc(NCCOc2ccccc2)nc(N2CCOCC2)n1 [Compound 11, N^2-(2-chlorophenyl)-6-morpholino-N^4-(2-phenoxyethyl)-1,3,5-triazine-2,4-diamine hydrochloride]		5.85 ± 14.3 µM			45.92	4.01	4.012	104.4	7.01	

— publication PMC12157728, “Green and Efficient Synthetic Protocol for 1,3,5-Triazine Derivatives with Anticancer Potential Against Colorectal Cancer” (Molecules, 2025)
